In paper PMC12668308, “A Novel Antimalarial Agent that Inhibits Protein Synthesis in Plasmodium falciparum” (Angewandte Chemie (International Ed. in English), 2025):

What was measured:
Experiment in all cases: [3H]-hypoxanthine incorporation assay
Type in all cases: cell-based, Plasmodium falciparum
[1] = test system: Dd2 DDD107458 (Dd2 + pfeEF2)
Procedure: (§1) ^[a]72-h [^3H] hypoxanthhine incorporation assay. Data is expressed as mean±s.d..
(§2) P. falciparum asexual blood stage parasites were cultured in human red blood cells (RBC, Blutspende SRK, Zurich) at a hematocrit of 5% in RPMI 1640 medium. The RPMI 1640 medium (ThermoFisher Scientific #51800−043) was supplemented with the following: 24 mM NaHCO3 (pH 7.3, Sigma-Aldrich #31437−500G-R), 25 mM Hepes (Sigma-Aldrich #H4034−500G), 0.36 mM hypoxanthine (Sigma-Aldrich # H9377−25G), 100 µg mL^-1 neomycin (Sigma-Aldrich #N6386−100G) and 0.5% Albumax II (Thermo Fisher #11021−045). Additionally, 2 mM choline chloride (279 mg/L, Sigma-Aldrich #C7527−100G) was added to the culture to block the induction of sexual commitment as described. ^[31^] The RPMI 1640 medium and components were dissolved in water (Milli-Q purified), stirred for at least 3 h, and then sterile filtered (0.22 μm pore size) with a bottle top filter (Corning # 431118). Parasite cultures were maintained in an atmosphere of 3% O2, 4% CO2, and 93% N2 in air-tight chambers at 37 °C. The [^3H]-hypoxanthine incorporation assay was used to test compound activity in the specific parasite lines as described.^[32^] Briefly, compounds were dissolved in DMSO (10 mM) and diluted in a hypoxanthine-free culture medium. A limiting dilution was performed over a 64-fold range (6-step twofold dilution) in a 96-well plate in duplicates. For every starting concentration, a limiting dilution was performed over a 64-fold range (6-step twofold dilution) in a 96-well plate in two biological duplicates. Parasites were added at 100 µL to each well containing the compound to obtain a final parasitemia of 0.3% and haematocrit of 1.25%. The plates were incubated for 48 h before 0.25 µCi of [^3H]-hypoxanthine was added per well for an additional 24 h. Parasites were harvested on a glass-fiber filter with a Microbeta FilterMate cell harvester (Perkin Elmer, Waltham, USA) and radioactivity was counted using a MicroBeta2 liquid scintillation counter (Perkin Elmer, Waltham, US). The results were recorded, processed by subtraction of the mean background signal obtained from the uninfected RBC controls and expressed as percentage of untreated controls. The fifty percent inhibitory concentration (IC50) was calculated by using nonlinear, four parameter (variable slope) curve fitting as described ^[33^] after importing into GraphPad Prism (version 8.3.0).

[2] = test system: Dd2 DSM265 (Dd2 + pfdhodh)
Procedure: as §1, §2

[3] = test system: Dd2 Fosmidomycin (Dd2 + pfdxr)
Procedure: as §1, §2

P. falciparum K1 = test system: P. falciparum K1
Procedure: as §1, §2

[4] = test system: Dd2 NITD609 (Dd2 + pfatp4)
Procedure: as §1, §2

[5] = test system: Dd2 MMV390048 (Dd2 + pfpI4k)
Procedure: as §1, §2

[6] = test system: Dd2 ELQ300 (Dd2 + pfcytb)
Procedure: as §1, §2

P. falciparum Dd2 = test system: P. falciparum Dd2
Procedure: as §1, §2

[7] = test system: Dd2 GNF156 (Dd2 + pfcarl)
Procedure: as §1, §2

[8] = Plasmodium falciparum, DD2, 72 h

CN1CCN(Cc2ccc(O)c(NC(=O)c3cccc(Oc4cc(C(F)(F)F)ccn4)c3)c2)CC1 [Compound 31, N-(2-hydroxy-5-((4-methylpiperazin-1-yl)methyl)phenyl)-3-((4-(trifluoromethyl)pyridin-2-yl)oxy)benzamide]
IC50 fold shift relative to Dd2 strain ([1]; Dd2 DDD107458): 0.6 | IC50 [1, 8]: 5.6 ± 0.9 nM | IC50 fold shift relative to Dd2 strain ([2]; Dd2 DSM265): 0.3 | IC50 ([2]; Plasmodium falciparum, 72 h): 2.8 ± 0.5 nM | IC50 fold shift relative to Dd2 strain ([3]; Dd2 Fosmidomycin): 0.3 | IC50 [3, 8]: 2.4 ± 0.6 nM | IC50 ratio relative to NF54 strain (P. falciparum K1; K1): 0.7 | IC50 (P. falciparum K1; Plasmodium falciparum, K1, 72 h): 1.3 ± 0.2 nM | IC50 fold shift relative to Dd2 strain ([4]; Dd2 NITD609): 0.7 | IC50 [4, 8]: 6.2 ± 2.5 nM | IC50 fold shift relative to Dd2 strain ([5]; Dd2 MMV390048): 0.5 | IC50 [5, 8]: 4.8 ± 1.5 nM | IC50 fold shift relative to Dd2 strain ([6]; Dd2 ELQ300): 0.5 | IC50 [6, 8]: 4.4 ± 0.1 nM | IC50 fold shift relative to Dd2 strain (P. falciparum Dd2; Dd2): 1.0 | IC50 ratio relative to NF54 strain (P. falciparum Dd2; Dd2): 5.1 | IC50 (P. falciparum Dd2; [8]): 9.3 ± 0.4 nM | IC50 fold shift relative to Dd2 strain ([7]; Dd2 GNF156): 0.7 | IC50 [7, 8]: 6.6 ± 0.5 nM
